Measurements reported in patent US20210053957A1, “HERBICIDAL COMPOUNDS” (SYNGENTA PARTICIPATIONS AG, priority 2018, published 2021).

What was measured:
Experiment in all cases: Post-emergence efficacy, glasshouse spray test
Assay type in all cases: in vivo
[1] = tested on: Digitaria sanguinalis (DIGSA); settings: Digitaria sanguinalis, post-emergence, 312 h; Application Rate 500 g/Ha; evaluated after 13 days; read-out: Control of weed species after post-emergence application, DIGSA (100=total damage to plant; 0=no damage to plant)
Outline: (§1)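 Spray solution: compound dissolved in acetone and IF50 emulsifier/solvent mix to 50 g/l stock, then diluted to test concentration in 0.25% or 1% sodium lauryl ether sulphate + 1% ammonium sulphate. Applied post-emergence to 14-day plants; injury scored 0–100 after 13 days.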

[2] = tested on: Amaranthus palmeri (AMAPA); settings: Amaranthus palmeri, post-emergence, 312 h; Application Rate 500 g/Ha; evaluated after 13 days; read-out: Control of weed species after post-emergence application, AMAPA (100=total damage to plant; 0=no damage to plant)
Outline: as §1

[3] = tested on: Euphorbia heterophylla (EPHHL); settings: Euphorbia heterophylla, post-emergence, 312 h; Application Rate 500 g/Ha; evaluated after 13 days; read-out: Control of weed species after post-emergence application, EPHHL (100=total damage to plant; 0=no damage to plant)
Outline: as §1

[4] = tested on: Lolium perenne (LOLPE); settings: Lolium perenne, post-emergence, 312 h; Application Rate 500 g/Ha; evaluated after 13 days; read-out: Control of weed species after post-emergence application, LOLPE (100=total damage to plant; 0=no damage to plant)
Outline: as §1

[5] = tested on: Ipomoea hederacea (IPOHE); settings: Ipomoea hederacea, post-emergence, 312 h; Application Rate 500 g/Ha; evaluated after 13 days; read-out: Control of weed species after post-emergence application, IPOHE (100=total damage to plant; 0=no damage to plant)
Outline: as §1

[6] = tested on: Chenopodium album (CHEAL); settings: Chenopodium album, post-emergence, 312 h; Application Rate 500 g/Ha; evaluated after 13 days; read-out: Control of weed species after post-emergence application, CHEAL (100=total damage to plant; 0=no damage to plant)
Outline: as §1

[7] = tested on: Echinochloa crus-galli (ECHCG); settings: Echinochloa crus-galli, post-emergence, 312 h; Application Rate 500 g/Ha; evaluated after 13 days; read-out: Control of weed species after post-emergence application, ECHCG (100=total damage to plant; 0=no damage to plant)
Outline: as §1

[8] = tested on: Eleusine indica (ELEIN); settings: Eleusine indica, post-emergence, 312 h; Application Rate 500 g/Ha; evaluated after 13 days; read-out: Control of weed species after post-emergence application, ELEIN (100=total damage to plant; 0=no damage to plant)
Outline: as §1

[9] = tested on: Setaia fabei (SETFA); settings: Setaria faberi, post-emergence, 312 h; Application Rate 500 g/Ha; evaluated after 13 days; read-out: Control of weed species after post-emergence application, SETFA (100=total damage to plant; 0=no damage to plant)
Outline: as §1

Cn1nncc1-c1cc[n+](CCS(=O)(=O)[O-])nc1 [Compound A49] showed a pest or weed control at 500 g/ha [1] of 70%, a pest or weed control at 500 g/ha [2] of 100% and a pest or weed control at 500 g/ha [3] of 90%. For the same molecule, the pest or weed control at 500 g/ha [4] was 40%, the pest or weed control at 500 g/ha [5] was 70% and the pest or weed control at 500 g/ha [6] was 100%. The pest or weed control at 500 g/ha [7] was 60%, the pest or weed control at 500 g/ha [8] was 60% and the pest or weed control at 500 g/ha [9] was 60%.

In the case of Cn1nnnc1-c1cc[n+](CCS(=O)(=O)O)nc1 [Compound A12], the pest or weed control at 500 g/ha [1] is reported as 60%, the pest or weed control at 500 g/ha [2] is reported as 60% and the pest or weed control at 500 g/ha [3] is reported as 20%. The pest or weed control at 500 g/ha [4] was 70%, the pest or weed control at 500 g/ha [5] was 20% and the pest or weed control at 500 g/ha [6] was 30%. The pest or weed control at 500 g/ha [7] was 30%, the pest or weed control at 500 g/ha [8] was 30% and the pest or weed control at 500 g/ha [9] was 40%.

Cn1cnc(-c2cc[n+](CCCC(=O)O)nc2)n1 [Compound A119] was tested, and the pest or weed control at 500 g/ha [1] was 90%, the pest or weed control at 500 g/ha [2] was 100% and the pest or weed control at 500 g/ha [3] was 80%. It also gave a pest or weed control at 500 g/ha [4] of 30%, a pest or weed control at 500 g/ha [5] of 30% and a pest or weed control at 500 g/ha [6] of 50%. The pest or weed control at 500 g/ha [7] was 80%, the pest or weed control at 500 g/ha [8] was 90% and the pest or weed control at 500 g/ha [9] was 100%.

O=S(=O)([O-])CC[n+]1ccc(-c2ncco2)cn1 [Compound A19] showed a pest or weed control at 500 g/ha [1] of 70%, a pest or weed control at 500 g/ha [2] of 40% and a pest or weed control at 500 g/ha [3] of 100%. For the same molecule, the pest or weed control at 500 g/ha [4] was 90%, the pest or weed control at 500 g/ha [5] was 70% and the pest or weed control at 500 g/ha [6] was 100%. For the same molecule, the pest or weed control at 500 g/ha [7] was 80%, the pest or weed control at 500 g/ha [8] was 100% and the pest or weed control at 500 g/ha [9] was 60%.

Work on Cc1coc(-c2cc[n+](CCOS(=O)(=O)[O-])nc2)n1 [Compound A134] yielded a pest or weed control at 500 g/ha [1] of 60%, a pest or weed control at 500 g/ha [2] of 90% and a pest or weed control at 500 g/ha [3] of 70%. It also gave a pest or weed control at 500 g/ha [4] of 40%, a pest or weed control at 500 g/ha [5] of 50% and a pest or weed control at 500 g/ha [6] of 30%. It also gave a pest or weed control at 500 g/ha [7] of 70%, a pest or weed control at 500 g/ha [8] of 80% and a pest or weed control at 500 g/ha [9] of 70%.

In the case of Cn1nncc1-c1cc[n+](CCC(=O)O)nc1 [Compound A48], the pest or weed control at 500 g/ha [1] is reported as 100%, the pest or weed control at 500 g/ha [2] is reported as 100% and the pest or weed control at 500 g/ha [3] is reported as 90%. For the same molecule, the pest or weed control at 500 g/ha [4] was 40%, the pest or weed control at 500 g/ha [5] was 90% and the pest or weed control at 500 g/ha [6] was 90%. For the same molecule, the pest or weed control at 500 g/ha [7] was 70%, the pest or weed control at 500 g/ha [8] was 70% and the pest or weed control at 500 g/ha [9] was 90%.

For O=S(=O)([O-])CC[n+]1ccc(-c2ncn[nH]2)cn1 [Compound A38], the pest or weed control at 500 g/ha [1] was 20%, the pest or weed control at 500 g/ha [2] was 20% and the pest or weed control at 500 g/ha [3] was 20%. For the same molecule, the pest or weed control at 500 g/ha [4] was 10%, the pest or weed control at 500 g/ha [5] was 20% and the pest or weed control at 500 g/ha [6] was 30%. The pest or weed control at 500 g/ha [7] was 10%, the pest or weed control at 500 g/ha [8] was 0% and the pest or weed control at 500 g/ha [9] was 10%.

In the case of COc1cc(-c2cc[n+](CCS(=O)(=O)[O-])nc2)sn1 [Compound A34], the pest or weed control at 500 g/ha [1] is reported as 30%, the pest or weed control at 500 g/ha [2] is reported as 60% and the pest or weed control at 500 g/ha [3] is reported as 30%. For the same molecule, the pest or weed control at 500 g/ha [4] was 20%, the pest or weed control at 500 g/ha [5] was 20% and the pest or weed control at 500 g/ha [6] was 20%. For the same molecule, the pest or weed control at 500 g/ha [7] was 50%, the pest or weed control at 500 g/ha [8] was 20% and the pest or weed control at 500 g/ha [9] was 40%.

For C=C/N=C(\OC)c1cc[n+](C(C)C(=O)OC)nc1 (stereo not drawn) [Compound A93], the pest or weed control at 500 g/ha [1] was 50%, the pest or weed control at 500 g/ha [2] was 0% and the pest or weed control at 500 g/ha [3] was 10%. It also gave a pest or weed control at 500 g/ha [4] of 10%, a pest or weed control at 500 g/ha [5] of 20% and a pest or weed control at 500 g/ha [6] of 0%. It also gave a pest or weed control at 500 g/ha [7] of 30%, a pest or weed control at 500 g/ha [8] of 30% and a pest or weed control at 500 g/ha [9] of 40%.

Cn1ccnc1-c1cc[n+](CCC(=O)O)nc1 [Compound A31, 3-[4-(1-methylimidazol-2-yl)pyridazin-1-ium-1-yl]propanoic acid; 2,2,2-trifluoroacetate] showed a pest or weed control at 500 g/ha [1] of 50%, a pest or weed control at 500 g/ha [2] of 30% and a pest or weed control at 500 g/ha [3] of 30%. It also gave a pest or weed control at 500 g/ha [4] of 20%, a pest or weed control at 500 g/ha [5] of 10% and a pest or weed control at 500 g/ha [6] of 20%. It also gave a pest or weed control at 500 g/ha [7] of 40%, a pest or weed control at 500 g/ha [8] of 50% and a pest or weed control at 500 g/ha [9] of 60%.
